Data set [1] is described as follows: Cytotoxicity against human RPE cells measured upto 50 uM. The format is toxicity, cell-based.
Data set [2] can be described thus: Cytotoxicity against human RPE cells assessed as cell viability at 50 uM. The data set is classed as toxicity, cell-based.

Each structure is given as a SMILES string.

In the case of `O=C(O)c1cc(F)cc(NCc2cn(-c3ccc(C(F)(F)F)cc3)nn2)c1`, the Activity entry in data set [1] was “Non-Toxic”; in data set [2], “Toxic”.
Consider `O=C(O)c1cc(F)cc(NCc2ccc(-c3ccccc3)cc2)c1`, for which the Activity entry in data set [1] is given as “Non-Toxic”.
As to `O=C(O)c1cc(F)cc(NCc2ccc(-c3ccc(C(F)(F)F)cc3)cc2)c1`, the Activity result in data set [1] is listed as “Non-Toxic”.
Take `O=C(O)c1cc(F)cc(NCc2ccc(-c3ccccc3C(F)(F)F)cc2)c1`: the Activity entry in data set [1] is given as “Non-Toxic”.

(Values after ChEMBL document CHEMBL5247678, “Design, Synthesis, and Structure-Activity Relationships of Biaryl Anilines as Subtype-Selective PPAR-alpha Agonists” (ACS Med Chem Lett, 2023).)
